Article PMC8069016, “Matrix Effects of the Hydroethanolic Extract of Calyces of Physalis peruviana L. on Rutin Pharmacokinetics in Wistar Rats Using Population Modeling” (Pharmaceutics, 2021)
Where two headings read alike, the source gives them in different places.

Experiments:
[1] = Stability in plasma (bioanalytical method validation); format: in vitro ADME, rats; details: Wistar, rat; plasma at acidic pH; 2 h at 4 °C, 30 d at −80 °C, and 3 freeze/thaw cycles
Protocol: Rutin and quercetin quantification was carried out by UHPLC-UV using a Chromaster RS chromatograph (Hitachi, Tokyo, Japan) and a Kinetex® EVO C18 column (2.6 µm, 100 × 2.1 mm; Phenomenex, Torrance, CA, USA) with an oven setting at 30 °C and a UV detector at 260 nm. The mobile phase consisted of 0.1% formic acid in water (A) and in acetonitrile (B), flowing at 0.5 mL/min in a gradient from 75% A to 65% A up to 9.3 min and 5 min of re-equilibration. The method was validated according to FDA guidelines. The UHPLC-UV method used for rutin and quercetin quantification in the blood plasma samples was selective and specific for these analytes and for the IS (Figure S2) and met all the criteria of the FDA guidelines. Linearity was described for the equations y = 0.00042x + 0.00910 (r^2 0.9996) and y = 0.00056 − 0.00767 (r^2 0.99980) for rutin and quercetin, respectively, at the concentration range from 100 to 10,000 ng/mL with a 1/x^2 weighting factor. Accuracy and precision were ≥85.6% (as recovery) and ≤7.2% (as variation coefficient), respectively, for both analytes, and these parameters were not affected by dilutions of over-concentrated samples up to 20 times the upper limit of quantification (recovery ≥ 86.3%).

[2] = Pharmacokinetics of rutin after intravenous administration, non-compartmental analysis; format: in vivo, Wistar rats; details: for AUC(0-inf) / MRT / half-life / clearance / Vd: male, Wistar, rat, iv; for Vd: read-out: Vdss
Protocol: (§1) The PK studies of rutin, both pure and from the extract of calyces of P. peruviana, were carried out using 50 male Wistar rats (7–11 weeks old and 250–300 g) obtained from the animal facility of the Department of Pharmacy of the Universidad Nacional de Colombia. The animals were kept under constant temperature conditions (22 ± 1 °C), with light/dark cycles of 12 h. They were provided with water and food ad libitum and fasted for 12 h before the assays. This protocol was approved by the ethics committee of the science faculty (Act 06, 2015, project 40831, 22 June 2015).
For intravenous (i.v.) administration, the extract was prepared in sodium chloride solution (0.9% NaCl), vortexed, and sonicated 3–4 times for 15 min. Rutin was first dissolved in DMSO and then diluted in 0.9% NaCl. The clear solutions were administrated via the lateral tail vein of the rats. For the oral route (p.o.) experiments, the extract and rutin were suspended in water close to the time for oral gavage dosing. […] Rutin doses below 1.45 (i.v.) or 75 (p.o.) mg/kg could not show enough quantifiable analytical signals in blood plasma. For the extract, the doses were close to the active ones, according to previous studies by our group.
Samples of the animals’ blood (approximately 250 µL) were taken by puncture in the lateral tail vein and collected in heparinized tubes at times 0, 0.05, 0.166, 0.333, 0.5, 0.75, 1, 1.5, 2, 3, 4, 6, 8, and 12 h for the i.v. experiments and at times 0, 0.083, 0.25, […], 0.75, 1, 2, 3, 4, 6, 8, 10, 12, and 24 h for the p.o. experiments.
Blood plasma aliquots (50 µL) were added to a chrysin standard solution (internal standard (IS)) at a final concentration of 1000 ng/mL. Proteins were precipitated with methanol (1:2 v:v), and clear supernatants were obtained by centrifugation at 1200× g and at 4 °C for 15 min; 6 µL of each aliquot was used for instrumental analyses. Another 50 µL of blood plasma aliquots with the IS were treated with β-glucuronidase/arylsulfatase (120 Fishman units) in order to indirectly quantify the Q3OG and quercetin-3-O-sulfate (Q3OS) present in these samples by conversion into the parent quercetin (deconjugation). The deconjugation reaction was promoted by incubating the samples with the enzymes at pH 5.5 and 37 °C for 30 min. Reactions with the Q3OG standard (10,000 ng/mL) and blank blood plasma were included in each analysis set as positive and negative controls, respectively. After the reaction, proteins were precipitated, as indicated above.
Rutin and quercetin quantification was carried out by UHPLC-UV using a Chromaster RS chromatograph (Hitachi, Tokyo, Japan) and a Kinetex® EVO C18 column (2.6 µm, 100 × 2.1 mm; Phenomenex, Torrance, CA, USA) with an oven setting at 30 °C and a UV detector at 260 nm. The mobile phase consisted of 0.1% formic acid in water (A) and in acetonitrile (B), flowing at 0.5 mL/min in a gradient from 75% A to 65% A up to 9.3 min and 5 min of re-equilibration. The method was validated according to FDA guidelines.
The PK parameters of rutin and quercetin (produced by deconjugation of Q3OG and Q3OS) were first determined by non-compartmental analysis (NCA) using the software program Pkanalix 2019R1 (Lixoft®, Paris, France), set to linear trapezoidal integral mode. The area under the curve to infinity (AUC0-INF), clearance (Cl), volume of distribution at the steady state (Vdss), volume of distribution associated with the terminal phase (Vdz), first-order rate constant of elimination (k), terminal half-life (t1/2), mean residence time (MRT), maximum observed concentration (Cmax), and time of maximum observed concentration (tmax) were determined for the analytes detected for each intervention.

[3] = set-up: method as in doi:10.1016/j.tifs.2017.07.008, PMID 32162346, PMID 30614249; details: low solubility and low permeability; cited from earlier work
[4] = Population pharmacokinetic modeling of rutin, intravenous administration; format: in vivo, Wistar rats; details: rutin i.v.; for k12 pop / k21 pop / k pop / V_pop: Table S1
Protocol: Population pharmacokinetic (PopPK) modeling for rutin and quercetin (produced by deconjugation of Q3OG and Q3OS) was performed using the software program Monolix 2019R1 (Lixoft®, Paris, France). One- and two-compartment structural models with first-order elimination were evaluated, and double first-order absorption was included for the oral dosing experiments. Analyses of the categorical covariates (pure rutin, extract, and doses) were performed, and those that were significant were added to the model (p < 0.05 for Pearson’s and Wald tests with stochastic approximation). Correlations between random effects of the parameters were also tested and added to the model, where appropriate (p < 0.05 for t-test). The final model, including the model of the residual error, was selected based on the observation of individual fit plots, Akaike’s information criteria (AIC) values, visual assessment of the observation-versus-prediction plot, the precision of the estimated parameters, and evaluation of the distribution of residuals. The model was internally validated by a visual predictive check (VPC) with 1000 simulated data.
The general model equation for the PK parameters was (2) Pi=Ppop+βcovariate n+ηi,p, where Pi is the individual parameter, Ppop is the population parameter, β is a parameter representing the variability due to the significant covariate n, and η(i,p) is the individual deviation from Ppop. According to the probability distribution of individual parameters, P in the equation could be expressed as logP or logitP (logP/((1 − P)).
Rutin (i.v.) from both sources was better fitted to a two-compartment model described by the following parameters: volume of the central compartment (V), k, and the distribution rate constants k12 and k21 (Figure 3a). The […] differential equations representing this model are expressed in Equations (3) and (4), where X1 and X2 are the amounts of the drug in the central and peripheral compartments, respectively. (3) dX1/dt=k21X2−k12+kX1 (4) dX2/dt=k12X1−k21X2
The population parameters in Table 4 correspond to those of pure rutin (for the dosage set) that was used as a reference in the analysis of covariates. A similarity was noted between the values for Vpop (0.0646 L/kg) and Vdz of pure rutin from the NCA, especially at 2.9 mg/kg (0.068 L/kg). The Clpop parameter, estimated from Vpop and kpop, was equivalent to the Cl of pure rutin from the NCA (in both cases 0.095 L/h/kg for the set of doses). […] Equations (5)–(8) describe the model of covariates, where η is the individual deviation from Ppop. (5) log(V/1−V)=log(Vpop/1−Vpop)+βVGEXT+ηV (6) logk=logkpop+βkGEXT+ηk (7) logk12=logk12pop (8) logk21=logk21pop

[5] = Pharmacokinetics of quercetin (deconjugated Q3OG and Q3OS) after oral administration, non-compartmental analysis; format: in vivo, Wistar rats; details: p.o.; only quercetin after deconjugation of Q3OG and Q3OS was measurable
Protocol: as §1
For intravenous (i.v.) administration, the extract was prepared in sodium chloride solution (0.9% NaCl), vortexed, and sonicated 3–4 times for 15 min. Rutin was first dissolved in DMSO and then diluted in 0.9% NaCl. The clear solutions were administrated via the lateral tail vein of the rats. […] Rutin doses below 1.45 (i.v.) or 75 (p.o.) mg/kg could not show enough quantifiable analytical signals in blood plasma. […]
Blood plasma aliquots (50 µL) were added to a chrysin standard solution (internal standard (IS)) at a final concentration of 1000 ng/mL. […] Another 50 µL of blood plasma aliquots with the IS were treated with β-glucuronidase/arylsulfatase (120 Fishman units) in order to indirectly quantify the Q3OG and quercetin-3-O-sulfate (Q3OS) present in these samples by conversion into the parent quercetin (deconjugation). […]

[6] = rutin in plasma, pure rutin i.v. 1.45 mg/kg
[7] = rutin in plasma, pure rutin i.v. 2.9 mg/kg
[8] = run Pure rutin and extract model: final model
[9] = run Pure rutin and extract model: model of covariate 1
[10] = run Pure rutin: one compartment model, first order elimination
[11] = run Pure rutin: selection of model error and final model
[12] = run Pure rutin: two-compartment model, first order elimination
[13] = two-compartment popPK model, pure rutin (dosage set) as reference

`O=c1c(O)c(-c2ccc(O)c(O)c2)oc2cc(O)cc(O)c12` [quercetin] gave a recovery [1] of no less than 87.8%.
`C[C@@H]1O[C@@H](OC[C@H]2O[C@@H](Oc3c(-c4ccc(O)c(O)c4)oc4cc(O)cc(O)c4c3=O)[C@H](O)[C@@H](O)[C@@H]2O)[C@H](O)[C@H](O)[C@H]1O` [Rutin, quercetin-3-O-rutinoside] gave an AUC(0-inf) [2, 6] of 14900 ng·h/mL, an MRT [2, 6] of 64.8 ± 10.6 min and a half-life [2, 6] of 39.6 ± 7.8 min. For the same compound, the clearance ([2]; rutin in plasma, pure rutin i.v. 1.45 mg/kg, read-out: Cl (converted)) was 1.67 mL/min/kg, the Vd [2, 6] was 0.11 ± 0.0306 L/kg and the AUC(0-inf) [2, 7] was 33900 ng·h/mL. The MRT [2, 7] was 48.6 ± 3.18 min, the half-life [2, 7] was 32.4 ± 3.72 min and the clearance ([2]; rutin in plasma, pure rutin i.v. 2.9 mg/kg, read-out: Cl (converted)) was 1.5 mL/min/kg. The Vd [2, 7] was 0.07 ± 0.009 L/kg, the clearance ([2]; plasma, rutin i.v., pure rutin, set of doses, read-out: Cl from the NCA (converted)) was 1.58 mL/min/kg and the “AUC/dose × 10^−3” value [2, 6] was 10,243.52 ± 1743.478 h/L. For the same compound, the Vdz [2, 6] was 0.096 ± 0.027 L/kg, the k [2, 6] was 1.08 ± 0.195 h⁻¹ and the “AUC/dose × 10^−3” value [2, 7] was 11,701.24 ± 992.522 h/L. The k [2, 7] was 1.29 ± 0.159 h⁻¹, the Vdz ([2]; rutin in plasma, pure rutin i.v. 2.9 mg/kg, 2.9 mg/kg) was 0.068 ± 0.012 L/kg and the Vdz ([2]; rutin in plasma, pure rutin i.v. 2.9 mg/kg, listed as pure rutin, 2.9 mg/kg) was 0.068 L/kg. The “biopharmaceutical classification system class” value [3] was “class IV”, the k12 pop [4, 8] was 2.6 h⁻¹ and the k21 pop [4, 8] was 13.6 h⁻¹. The k pop [4, 8] was 1.47 h⁻¹, the V_pop [4, 9] was 5.9 e-5 and the k12 pop [4, 9] was 2.62 h⁻¹. The k21 pop [4, 9] was 9.67 h⁻¹, the k pop [4, 9] was 1.58 h⁻¹ and the V_pop [4, 10] was 7.81 e−5. The k pop [4, 10] was 1.22 h⁻¹, the V_pop [4, 11] was 6.4e -5 and the k12 pop [4, 11] was 2.5 h⁻¹. For the same compound, the k21 pop [4, 11] was 16.8 h⁻¹, the k pop [4, 11] was 1.48 h⁻¹ and the V_pop [4, 12] was 5.89e -5. For the same compound, the k12 pop [4, 12] was 5.24 h⁻¹, the k21 pop [4, 12] was 19.4 h⁻¹ and the k pop [4, 12] was 1.61 h⁻¹. The Clpop ([4]; estimated from Vpop and kpop, set of doses) was 1.58 mL/min/kg, the “Vpop (volume of the central compartment)” value [4, 13] was 0.0646 L/kg and the k12_pop [4, 13] was 2.6 h⁻¹. For the same compound, the k21_pop [4, 13] was 13.6 h⁻¹, the “kpop (first-order rate constant of elimination)” value [4, 13] was 1.47 h⁻¹ and the “plasma concentrations of rutin or free quercetin after oral administration” value [5] was “did not allow measurable plasma concentrations of rutin or free quercetin”.
